Source: patent publication US10188677B2, “Iron supplement composition” (THE D DROPS COMPANY INC., priority 2011, dated 2019)
Marks after values point to notes of the source that are not given here.

What was measured:
Assay type in all cases: physicochemical
[1] = Drop consistency for Eurodropper dispensing
Experimental: Drop consistency was examined to determine suitability of various dispersions for Eurodropper dispensing. Preparations of various iron salts, at concentrations of 66 mg/mL, were made using medium chain triglyceride oil. Each sample was shaken vigorously and then inverted to dispense 10 drops. This was repeated until 60 drops were dispensed.
The effect of carrier liquid type on drop consistency was next examined. Preparations of ferrous fumarate (149 μm particle size) were prepared and drop consistency was measured using similar methodology to that described above.

[2] = Dispersion: number of test tube inversions to achieve even dispersion of iron salt in carrier liquid; conditions: for Dispersion (# of inversions): 66 mg/mL elemental iron
Experimental: (§1) Iron salt in the form of ferrous sulfate (dried) and ferrous fumarate were investigated for dispersibility and settling behavior in a range of carrier liquids. Sufficient iron salt was added to test tubes to achieve concentrations of elemental iron equivalent to 66 mg/mL suspension (i.e., 2 mg/drop, a commercially-viable concentration for infant supplementation).
The initial preparation of dry powder iron salts into suspension was achieved by weighing the desired amount of dry powder, which was added to the liquid in a capped test tube. The combination was shaken for about two minutes, and it was then allowed to settle overnight to promote thorough particle whetting.
Suitability of the preparation for suspension was next tested by counting the number inversions of the test tube inversions required to achieve an even dispersion of particles in the carrier liquid. Each replicate began with iron salt fully settled at the bottom of the test tube.

[3] = Settling: time for iron salt particulate to show evidence of settling in carrier liquid
Experimental: Settling behavior was also tested for each carrier liquid. Test tubes of carrier liquid were loaded with either ferrous sulfate (dried) or ferrous fumarate at concentrations of 66 mg/mL of elemental iron. […] Settling was then allowed to proceed and the time required for the iron salt particulate to show evidence of settling was recorded. Evidence of settling was considered as a reduction in opacity throughout the top 1 cm of liquid in the test tube.

[4] = Viscosity and density of carrier liquids
Experimental: as §1

[5] = iron salt 66 mg/mL in medium chain triglyceride oil
[6] = carrier: medium chain triglyceride
[7] = carrier: medium chain triglyceride, 66 mg/mL elemental iron
[8] = carrier: olive oil, 66 mg/mL elemental iron
[9] = carrier: rapeseed oil, 66 mg/mL elemental iron

SMILES	Dispensing of dispersion from the Eurodropper [1, 5]	Dispersion (# of inversions) [2, 6]	Dispersion (# of inversions) ([2]; carrier: olive oil)	Dispersion (# of inversions) ([2]; carrier: rapeseed oil)	Dispersibility ([2]; water-based preparations)	Settling [3, 7] [s]	Settling [3, 8] [s]	Settling [3, 9] [s]	other results
O=P([O-])([O-])OP(=O)([O-])[O-].[Fe+2].[Fe+2] [Ferrous pyrophosphate]	* Dispersion failed to dispense from the Eurodropper after 15 drops.	–	–	–	–	–	–	–	Average 10 Drop Weight (mg ± SD) ([1]; iron salt 66 mg/mL in medium chain triglyceride oil, Eurodropper, 60 drops): 266 * mg
O=C([O-])/C=C/C(=O)[O-].[Fe+2] [Ferrous fumarate, ferrous fumarate]	–	56.4 ± 10.6 # of inversions	84.0 ± 1.4 # of inversions	167.0 ± 7.0 # of inversions	very easily	16.3 ± 1.2	95.5 ± 4.9	144.0 ± 5.7	Average 10 Drop Weight (mg ± SD) ([1]; ferrous fumarate 149 μm particle size, carrier: canola oil): 284.8 ± 4.7 mg; Average 10 Drop Weight (mg ± SD) ([1]; ferrous fumarate 149 μm particle size, carrier: medium chain triglyceride): 276.2 ± 3.0 mg; Average 10 Drop Weight (mg ± SD) ([1]; ferrous fumarate 149 μm particle size, carrier: olive oil): 285.8 ± 3.5 mg; Average 10 Drop Weight (mg ± SD) ([1]; ferrous fumarate 149 μm particle size, carrier: water): Occluded *; Average 10 Drop Weight (mg ± SD) ([1]; iron salt 66 mg/mL in medium chain triglyceride oil, Eurodropper, 60 drops, listed as Ferrous fumarate (Sigma, XXX μm)): 264.7 ± 10.2 mg; Average 10 Drop Weight (mg ± SD) ([1]; iron salt 66 mg/mL in medium chain triglyceride oil, Eurodropper, 60 drops, listed as Ferrous fumarate (Watson, 149 μm)): 277.0 ± 10.3 mg; Performance in the Eurodropper ([1]; regardless of carrier liquid): consistent performance; Dispersibility ([2]; carrier: medium chain triglyceride oil, relative to the other carriers): acceptably rapid; Dispersion (# of inversions) ([2]; carrier: water): 4.3 ± 0.6 # of inversions; Settling ([3]; carrier: water, 66 mg/mL elemental iron): 1.0 ± 0.5 s; Settling ([3]; in water): extremely rapid settling
O=S(=O)([O-])[O-].[Fe+2] [Ferrous sulfate (dried), ferrous sulfate (dried)]	** Dispersion failed to dispense at all from the Eurodropper because the powder clumped in the oil, and occluded opening.	7.3 ± 0.6 # of inversions	27.3 ± 4.5 # of inversions	62.0 ± 6.0 # of inversions	not at all	42.3 ± 8.5	213.3 ± 7.6	238.7 ± 5.9	–
O [Water]	–	–	–	–	–	–	–	–	Density [4]: 1 g/mL; Viscosity ([4]; @ 20° C.): 1 cP
